US20150344540A1, “NOVEL GLP-1 RECEPTOR AGONISTS WITH CHOLESTEROL EFFLUX ACTIVITY” (NOVO NORDISK A/S, priority 2012, published 2015)
Where a SMILES comes first, the peptide text is derived from it. [ ]: non-standard residue; d: D form. Aib = CC(C)(N)C(=O)O

Assays:
[1] = system: Mouse monocyte/macrophage cell line, RAW 264.7; experiment: Cholesterol efflux assay (3H-cholesterol, macrophage cell line); assay type: cell-based; details: RAW 264.7, 4 hrs incubation, 0.1% human serum albumin; for 4 h Cholesterol Efflux Emax: ABCA1-mediated efflux; for EC50: read-out: 4 h Cholesterol Efflux EC50, ABCA1-mediated efflux (CPT-cAMP induced minus non-induced)
[2] = Pharmacokinetics in mini-pigs after i.v. administration; details: female, Göttingen, minipig, iv, 5 nmol/kg
Source text: The aim of the study is to assess the pharmacokinetic properties of the compounds of the invention, in mini-pigs.
Göttingen mini-pigs female, 15-20 kg, purchased from Ellegaard Mini-pigs, Denmark, were housed in the Animal Unit, Novo Nordisk A/S and were kept and handled according to normal procedure in the Animal Unit. After minimum 2 weeks of acclimatization two permanent central venous catheters were implemented in vena cava caudalis in each animal. After surgery the animals were in their normal individual pens during the pharmacokinetic experiments.
Intravenous injections were given through the central short catheter, which was flushed with min 10 ml of sterile saline post administration. The test substance was dosed at 5 nmol/kg, N=3, in a volume of 0.05 ml/kg.
On day 1 the catheters are coupled to extension tubes, which will be removed at the end of day 1.
Samples were kept on wet ice until centrifugation (10 min, 4° C., 1942 g). Afterwards, plasma (min. 100 μl) was transferred immediately to Micronic tubes and kept at −20° C. until analysis. The plasma samples were analysed by an immunoaasay described below.
The plasma concentrations of the peptides with intact N-terminus were determined using a Luminescence Oxygen Chanelling Immuno-assay (LOCI). The donor beads were coated with streptavidin, while acceptor beads were conjugated with a monoclonal antibody recognizing a mid-/C-terminal epitope of the peptide. The other monoclonal antibody, specific for the N-terminus, was biotinylated. The three reactants were combined with the analyte and formed a two-sited immuno-complex. Illumination of the complex released singlet oxygen atoms from the donor beads, which were channeled into the acceptor beads and triggered chemi-luminescence which was measured in an Envision plate reader. The amount of light was proportional to the concentration of the compound.
Plasma concentration-time profiles was analysed by a non-compartmental pharmacokinetics analysis using Phoenix (Pharsight Inc., Mountain View, Calif., USA). Calculations were performed using individual concentration-time values from each animal.

[3] = plasma, T1/2 Mean Value, Göttingen mini-pigs, N=3

| C0 ([2]; plasma) | Vd ([2]; plasma) | clearance ([2]; plasma) | half-life [2, 3] | C0 ([2]; in vivo) | Vd ([2]; in vivo) | clearance ([2]; in vivo) | half-life ([2]; in vivo) | half-life ([2]; plasma, T1/2, mini-pigs) | Compound | 4 h Cholesterol Efflux Emax [1] | EC50 [1] |
| --- | --- | --- | --- | --- | --- | --- | --- | --- | --- | --- | --- |
| 131 nM | 0.0878 L/kg | 2.68 mL/h/kg | 24 h | – | – | – | – | – | CC[C@H](C)[C@H](NC(=O)[C@H](Cc1ccccc1)NC(=O)[C@H](CCC(=O)O)NC(=O)[C@H](CCCCN)NC(=O)[C@@H](NC(=O)[C@H](CCCCN)NC(=O)[C@H](CCC(=O)O)NC(=O)CNC(=O)[C@H](CCC(=O)O)NC(=O)[C@H](CC(C)C)NC(=O)[C@H](Cc1ccc(O)cc1)NC(=O)[C@H](CO)NC(=O)[C@H](CO)NC(=O)[C@@H](NC(=O)[C@H](CC(=O)O)NC(=O)[C@H](CO)NC(=O)[C@@H](NC(=O)[C@H](Cc1ccccc1)NC(=O)[C@@H](NC(=O)CNC(=O)[C@H](CCC(=O)O)NC(=O)C(C)(C)NC(=O)[C@@H](N)Cc1c[nH]cn1)[C@@H](C)O)[C@@H](C)O)C(C)C)C(C)C)C(=O)N[C@@H](CCC(=O)O)C(=O)N[C@@H](Cc1c[nH]c2ccccc12)C(=O)N[C@@H](CC(C)C)C(=O)N[C@H](C(=O)N[C@@H](CCC(=O)O)C(=O)N[C@@H](CCCCN)C(=O)NC(C)(C)C(=O)N[C@@H](CCCCN)C(=O)N[C@@H](CCC(=O)O)C(=O)N[C@@H](Cc1ccccc1)C(=O)N[C@@H](CC(C)C)C(N)=O)C(C)C [Compound 49, [Aib8,Glu23,Lys24,Val25,Glu30,Glu34,Lys35,Aib36,Lys37]-GLP-1-(7-37)-peptidyl-Glu-Phe-Leu amide] (H-H[Aib]EGTFTSDVSSYLEGEKVKEFIEWLVEK[Aib]KEFL-NH2) | 123% | – |
| – | – | – | – | 95.8 nM | 0.0921 L/kg | 1.2 mL/h/kg | 53.2 h | – | CC[C@H](C)[C@H](NC(=O)[C@H](Cc1ccccc1)NC(=O)[C@H](CCC(=O)O)NC(=O)[C@H](CCCCN)NC(=O)[C@@H](NC(=O)[C@H](C)NC(=O)[C@H](CCC(=O)O)NC(=O)CNC(=O)[C@H](CCC(=O)O)NC(=O)[C@H](CC(C)C)NC(=O)[C@H](Cc1ccc(O)cc1)NC(=O)[C@H](CO)NC(=O)[C@H](CO)NC(=O)[C@@H](NC(=O)[C@H](CC(=O)O)NC(=O)[C@H](CO)NC(=O)[C@@H](NC(=O)[C@H](Cc1ccccc1)NC(=O)[C@@H](NC(=O)CNC(=O)[C@H](CCC(=O)O)NC(=O)C(C)(C)NC(=O)[C@@H](N)Cc1c[nH]cn1)[C@@H](C)O)[C@@H](C)O)C(C)C)C(C)C)C(=O)N[C@@H](C)C(=O)N[C@@H](Cc1c[nH]c2ccccc12)C(=O)N[C@@H](CC(C)C)C(=O)N[C@H](C(=O)N[C@@H](CCC(=O)O)C(=O)N[C@@H](CCCCN)C(=O)NC(C)(C)C(=O)N[C@@H](CCCCN)C(=O)N[C@@H](CCC(=O)O)C(=O)N[C@@H](Cc1ccccc1)C(=O)N[C@@H](CC(C)C)C(=O)N[C@@H](CCC(=O)O)C(=O)N[C@@H](CCCCN)C(=O)O)C(C)C [Compound 99, [Aib8,Glu23,Val25,Glu34,Lys35,Aib36,Lys37]-GLP-1-(7-37)-peptidyl-Glu-Phe-Leu-Glu-Lys] | 99% | 290 nM |
| 53.3 nM | 0.27 L/kg | 5.9 mL/h/kg | 31.8 h | – | – | – | – | – | CC[C@H](C)[C@H](NC(=O)[C@H](Cc1ccccc1)NC(=O)[C@H](CCC(=O)O)NC(=O)[C@H](CCCCN)NC(=O)[C@@H](NC(=O)[C@H](C)NC(=O)[C@H](CCC(=O)O)NC(=O)CNC(=O)[C@H](CCC(=O)O)NC(=O)[C@H](CC(C)C)NC(=O)[C@H](Cc1ccc(O)cc1)NC(=O)[C@H](CO)NC(=O)[C@H](CO)NC(=O)[C@@H](NC(=O)[C@H](CC(=O)O)NC(=O)[C@H](CO)NC(=O)[C@@H](NC(=O)[C@H](Cc1ccccc1)NC(=O)[C@@H](NC(=O)CNC(=O)[C@H](CCC(=O)O)NC(=O)C(C)(C)NC(=O)[C@@H](N)Cc1c[nH]cn1)[C@@H](C)O)[C@@H](C)O)C(C)C)C(C)C)C(=O)N[C@@H](C)C(=O)N[C@@H](Cc1c[nH]c2ccccc12)C(=O)N[C@@H](CC(C)C)C(=O)N[C@H](C(=O)N[C@@H](CCC(=O)O)C(=O)N[C@@H](CCCCN)C(=O)NC(C)(C)C(=O)N[C@@H](CCCCN)C(=O)N[C@@H](CCC(=O)O)C(=O)N[C@@H](Cc1ccccc1)C(=O)N[C@@H](CC(C)C)C(=O)N[C@@H](CCC(=O)O)C(=O)N[C@@H](CCCCN)C(=O)N[C@H](C(=O)N[C@@H](CCCCN)C(=O)N[C@@H](CCC(=O)O)C(=O)N[C@@H](Cc1ccccc1)C(N)=O)C(C)C)C(C)C [Compound 61] | 82% | – |
| 136 nM | 0.0802 L/kg | 1.31 mL/h/kg | 40.7 h | – | – | – | – | – | CC[C@H](C)[C@H](NC(=O)[C@H](Cc1ccccc1)NC(=O)[C@H](CCC(=O)O)NC(=O)[C@H](CCCCN)NC(=O)[C@@H](NC(=O)[C@H](C)NC(=O)[C@H](CCC(=O)O)NC(=O)CNC(=O)[C@H](CCC(=O)O)NC(=O)[C@H](CC(C)C)NC(=O)[C@H](Cc1ccc(O)cc1)NC(=O)[C@H](CO)NC(=O)[C@H](CO)NC(=O)[C@@H](NC(=O)[C@H](CC(=O)O)NC(=O)[C@H](CO)NC(=O)[C@@H](NC(=O)[C@H](Cc1ccccc1)NC(=O)[C@@H](NC(=O)CNC(=O)[C@H](CCC(=O)O)NC(=O)C(C)(C)NC(=O)[C@@H](N)Cc1c[nH]cn1)[C@@H](C)O)[C@@H](C)O)C(C)C)C(C)C)C(=O)N[C@@H](C)C(=O)N[C@@H](Cc1c[nH]c2ccccc12)C(=O)N[C@@H](CC(C)C)C(=O)N[C@H](C(=O)N[C@@H](CCC(=O)O)C(=O)N[C@@H](CCCCN)C(=O)NC(C)(C)C(=O)N[C@@H](CCCCN)C(=O)N[C@@H](CCC(=O)O)C(=O)N[C@@H](Cc1ccccc1)C(=O)N[C@@H](CC(C)C)C(=O)N[C@@H](CCC(=O)O)C(=O)N[C@@H](CCCCN)C(=O)N[C@H](C(N)=O)C(C)C)C(C)C [Compound 54, [Aib8,Glu23,Val25,Glu34,Lys35,Aib36,Lys37]-GLP-1-(7-37)-peptidyl-Glu-Phe-Leu-Glu-Lys-Val amide] | 121% | – |
| 51.2 nM | 0.146 L/kg | 3.71 mL/h/kg | 27.3 h | – | – | – | – | 27.3 h | CC[C@H](C)[C@H](NC(=O)[C@H](Cc1ccccc1)NC(=O)[C@H](CCC(=O)O)NC(=O)[C@H](CCCCN)NC(=O)[C@@H](NC(=O)[C@H](C)NC(=O)[C@H](CCC(N)=O)NC(=O)CNC(=O)[C@H](CCC(=O)O)NC(=O)[C@H](CC(C)C)NC(=O)[C@H](Cc1ccc(O)cc1)NC(=O)[C@H](CO)NC(=O)[C@H](CO)NC(=O)[C@@H](NC(=O)[C@H](CC(=O)O)NC(=O)[C@H](CO)NC(=O)[C@@H](NC(=O)[C@H](Cc1ccccc1)NC(=O)[C@@H](NC(=O)CNC(=O)[C@H](CCC(=O)O)NC(=O)C(C)(C)NC(=O)[C@@H](N)Cc1c[nH]cn1)[C@@H](C)O)[C@@H](C)O)C(C)C)C(C)C)C(=O)N[C@@H](C)C(=O)N[C@@H](Cc1c[nH]c2ccccc12)C(=O)N[C@@H](CC(C)C)C(=O)N[C@H](C(=O)N[C@@H](CCC(=O)O)C(=O)N[C@@H](CCCCN)C(=O)NC(C)(C)C(=O)N[C@@H](CCCCN)C(=O)N[C@@H](CCC(=O)O)C(=O)N[C@@H](Cc1ccccc1)C(=O)N[C@@H](CC(C)C)C(N)=O)C(C)C [Compound 7] (H-H[Aib]EGTFTSDVSSYLEGQAVKEFIAWLVEK[Aib]KEFL-NH2) | 90% | – |
| – | – | – | – | 123 nM | 0.0889 L/kg | 1.44 mL/h/kg | 42.8 h | – | CC[C@H](C)[C@H](NC(=O)[C@H](Cc1ccccc1)NC(=O)[C@H](CCC(=O)O)NC(=O)[C@H](CCCCN)NC(=O)[C@@H](NC(=O)[C@H](C)NC(=O)[C@H](CCC(=O)O)NC(=O)CNC(=O)[C@H](CCC(=O)O)NC(=O)[C@H](CC(C)C)NC(=O)[C@H](Cc1ccc(O)cc1)NC(=O)[C@H](CO)NC(=O)[C@H](CO)NC(=O)[C@@H](NC(=O)[C@H](CC(=O)O)NC(=O)[C@H](CO)NC(=O)[C@@H](NC(=O)[C@H](Cc1ccccc1)NC(=O)[C@@H](NC(=O)CNC(=O)[C@H](CCC(=O)O)NC(=O)C(C)(C)NC(=O)[C@@H](N)Cc1c[nH]cn1)[C@@H](C)O)[C@@H](C)O)C(C)C)C(C)C)C(=O)N[C@@H](C)C(=O)N[C@@H](Cc1c[nH]c2ccccc12)C(=O)N[C@@H](CC(C)C)C(=O)N[C@H](C(=O)N[C@@H](CCC(=O)O)C(=O)N[C@@H](CCCCN)C(=O)NC(C)(C)C(=O)N[C@@H](CCCCN)C(=O)N[C@@H](CCC(=O)O)C(=O)N[C@@H](Cc1ccccc1)C(=O)N[C@@H](CC(C)C)C(=O)O)C(C)C [Compound 16, [Aib8,Glu23,Val25,Glu34,Lys35,Aib36,Lys37]-GLP-1-(7-37)-peptidyl-Glu-Phe-Leu] | 105% | 680 nM |
